Experimental data reported in patent US11530206B2, “Phenylaminopyrimidine amide autophagy inhibitors and methods of use thereof” (Deciphera Pharmaceuticals, LLC, priority 2019, dated 2022).
pIC50: −log10 of the molar value.

Experiments:
LRRK2 kinase = target: T1, LRRK2 kinase (Homo sapiens, UniProt Q5S007); experiment: Biochemical assay for LRRK2 (coupled pyruvate kinase/lactate dehydrogenase assay); conditions: 26.4 nM LRRK2 (residues 970-2528), peptide substrate, 1 mM ATP
T1 construct: purchased Thermo Fisher
Method: Example 138. Biochemical Assay for LRRK2 (SEQ. ID NO: 4)
Activity of LRRK2 kinase was determined spectroscopically using a coupled pyruvate kinase/lactate dehydrogenase assay that continuously monitors the ATP hydrolysis-dependent oxidation of NADH (e.g., Schindler et al. Science (2000) 289: 1938-1942). Assays were conducted in 384-well plates (100 μL final volume) using 26.4 nM LRRK2 (Thermo Fisher), 0.1 mM peptide substrate ([…] (SEQ ID NO: 6)), 1.5 units pyruvate kinase, 2.1 units lactate dehydrogenase, 1 mM phosphoenol pyruvate, 0.28 mM NADH and 1 mM ATP in assay buffer (100 mM Tris, pH 7.5, 15 mM MgCl2, 0.5 mM DTT, 0.004% (w/v) BSA, and 0.004% Triton X-100). Inhibition of LRRK2 was measured by adding serial diluted test compound (final assay concentration of 1% DMSO). A decrease in absorption at 340 nm was monitored continuously for 6 hours at 30° C. on a multi-mode microplate reader (BioTek). The reaction rate was calculated using the 2-3 h time frame. The reaction rate at each concentration of compound was converted to percent inhibition using controls (i.e. reaction with no test compound and reaction with a known inhibitor) and IC50 values were calculated using software routines in Prism (GraphPad software).

ULK1 kinase = target: T2, ULK1 kinase (Homo sapiens, UniProt O75385, E37A/K38A); experiment: Biochemical assay for ULK1.3 (coupled pyruvate kinase/lactate dehydrogenase assay, peptide substrate); conditions: 0.1 nM ULK1 (residues 1-283), 1 mM ATP
T2 construct: purchased Beryllium
T2 sequence (O75385 1-283 E37A/K38A): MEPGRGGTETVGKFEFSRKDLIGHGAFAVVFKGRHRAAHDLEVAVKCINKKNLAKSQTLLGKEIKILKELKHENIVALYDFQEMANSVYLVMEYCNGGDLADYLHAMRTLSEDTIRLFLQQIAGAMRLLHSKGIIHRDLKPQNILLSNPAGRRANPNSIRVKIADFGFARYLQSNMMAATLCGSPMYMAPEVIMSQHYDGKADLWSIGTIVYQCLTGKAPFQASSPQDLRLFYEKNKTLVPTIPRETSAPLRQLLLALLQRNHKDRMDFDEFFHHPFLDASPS
Method: Biochemical Assay for ULK1.3 (SEQ. ID NO: 2)
Inhibition of ULK1 was measured by adding serial diluted test compound (final assay concentration of 1% DMSO). A decrease in absorption at 340 nm was monitored continuously for 6 hours at 30° C. on a multi-mode microplate reader (BioTek). The reaction rate was calculated using the 2-3 h time frame. The reaction rate at each concentration of compound was converted to percent inhibition using controls (i.e. reaction with no test compound and reaction with a known inhibitor) and IC50 values were calculated using software routines in Prism (GraphPad software).

ULK kinase [1] = experiment: pATG13 levels of mutant KRas MiaPaCa-2 cells after treatment with ULK inhibitors in combination with trametinib (ELISA); assay type: cell-based, human; conditions: MiaPaCa-2 pancreatic cancer cells, 250 nM trametinib, overnight, pS318-ATG13
Method: (§1) MiaPaCa-2 human pancreatic cancer cells (10000 cells/well) were added to a 384-well tissue-culture treated plate in 50 μL of pre-warmed DMEM medium supplemented with 10% characterized fetal bovine serum (Invitrogen, Carlsbad, Calif.), 100 units/mL penicillin G, 100 µg/mL streptomycin, and 2.5% Horse Serum and allowed to grow overnight at 37° C., 5% CO2, and 95% humidity. The following day, 10 μL of media containing trametinib or DMSO as a control was added to wells. […] A dose response of a test compound (0.6 μL per well) was added. DMSO (0.6 μL) was added to control wells. The plate was briefly shaken to mix wells and then incubated at 37° C. overnight. The next day, the media was aspirated and cells were washed with Dulbecco's Phosphate Buffered Saline (Gibco). Cells were lysed using MPER lysis buffer (Pierce, Rockford, Ill.) containing Halt Phosphatase and Protease Inhibitors (Pierce, Rockford, Ill.) and Phosphatase inhibitor cocktail 2 (Sigma, St. Louis, Mo.) at 4° C. for 10 minutes with shaking.
(§2) Plate wells were washed with ELISA wash buffer. Cell lysate was added to wells and incubated at room temperature for 2 hours. Plate wells were washed with ELISA wash buffer. […] Plate wells were washed with ELISA wash buffer. […] Plate wells were washed with ELISA wash buffer. […] The reaction was stopped with 2N Sulfuric Acid. The plate was analyzed at on a plate reader measuring absorbance at 450 nm and 540 nm (background). Signal was calculated by first subtracting the background absorbance at 540 nm from the absorbance at 450 nm for each well. Next, the background corrected absorbance at 450 nm from blank wells was subtracted from test wells. Data was compared to control wells to determine % ATG13 phosphorylation. GraphPad Prism was used to calculate IC50 values.

ULK kinase [2] = experiment: pATG13 levels of mutant KRas A549 cells after treatment with ULK inhibitors in combination with trametinib (ELISA); assay type: cell-based, human; conditions: A549 (KRAS mutant) lung cancer cells, 250 nM trametinib, overnight, pS318-ATG13
Method: Cellular Inhibition of ULK Kinase Substrate ATG13 Protein pATG13 Levels of Mutant KRas A549 Cells after Treatment with ULK Inhibitors in Combination with Trametinib
as §1, with “A549 (KRAS mutant)” for “MiaPaCa-2”, “lung” for “pancreatic”, “(6,000” for “(10000”, “G, and” for “G,”, “μg/mL streptomycin” for “µg/mL streptomycin, and 2.5% Horse Serum”
as §2

T1 sequence (Q5S007 with tags, fused parts or gaps): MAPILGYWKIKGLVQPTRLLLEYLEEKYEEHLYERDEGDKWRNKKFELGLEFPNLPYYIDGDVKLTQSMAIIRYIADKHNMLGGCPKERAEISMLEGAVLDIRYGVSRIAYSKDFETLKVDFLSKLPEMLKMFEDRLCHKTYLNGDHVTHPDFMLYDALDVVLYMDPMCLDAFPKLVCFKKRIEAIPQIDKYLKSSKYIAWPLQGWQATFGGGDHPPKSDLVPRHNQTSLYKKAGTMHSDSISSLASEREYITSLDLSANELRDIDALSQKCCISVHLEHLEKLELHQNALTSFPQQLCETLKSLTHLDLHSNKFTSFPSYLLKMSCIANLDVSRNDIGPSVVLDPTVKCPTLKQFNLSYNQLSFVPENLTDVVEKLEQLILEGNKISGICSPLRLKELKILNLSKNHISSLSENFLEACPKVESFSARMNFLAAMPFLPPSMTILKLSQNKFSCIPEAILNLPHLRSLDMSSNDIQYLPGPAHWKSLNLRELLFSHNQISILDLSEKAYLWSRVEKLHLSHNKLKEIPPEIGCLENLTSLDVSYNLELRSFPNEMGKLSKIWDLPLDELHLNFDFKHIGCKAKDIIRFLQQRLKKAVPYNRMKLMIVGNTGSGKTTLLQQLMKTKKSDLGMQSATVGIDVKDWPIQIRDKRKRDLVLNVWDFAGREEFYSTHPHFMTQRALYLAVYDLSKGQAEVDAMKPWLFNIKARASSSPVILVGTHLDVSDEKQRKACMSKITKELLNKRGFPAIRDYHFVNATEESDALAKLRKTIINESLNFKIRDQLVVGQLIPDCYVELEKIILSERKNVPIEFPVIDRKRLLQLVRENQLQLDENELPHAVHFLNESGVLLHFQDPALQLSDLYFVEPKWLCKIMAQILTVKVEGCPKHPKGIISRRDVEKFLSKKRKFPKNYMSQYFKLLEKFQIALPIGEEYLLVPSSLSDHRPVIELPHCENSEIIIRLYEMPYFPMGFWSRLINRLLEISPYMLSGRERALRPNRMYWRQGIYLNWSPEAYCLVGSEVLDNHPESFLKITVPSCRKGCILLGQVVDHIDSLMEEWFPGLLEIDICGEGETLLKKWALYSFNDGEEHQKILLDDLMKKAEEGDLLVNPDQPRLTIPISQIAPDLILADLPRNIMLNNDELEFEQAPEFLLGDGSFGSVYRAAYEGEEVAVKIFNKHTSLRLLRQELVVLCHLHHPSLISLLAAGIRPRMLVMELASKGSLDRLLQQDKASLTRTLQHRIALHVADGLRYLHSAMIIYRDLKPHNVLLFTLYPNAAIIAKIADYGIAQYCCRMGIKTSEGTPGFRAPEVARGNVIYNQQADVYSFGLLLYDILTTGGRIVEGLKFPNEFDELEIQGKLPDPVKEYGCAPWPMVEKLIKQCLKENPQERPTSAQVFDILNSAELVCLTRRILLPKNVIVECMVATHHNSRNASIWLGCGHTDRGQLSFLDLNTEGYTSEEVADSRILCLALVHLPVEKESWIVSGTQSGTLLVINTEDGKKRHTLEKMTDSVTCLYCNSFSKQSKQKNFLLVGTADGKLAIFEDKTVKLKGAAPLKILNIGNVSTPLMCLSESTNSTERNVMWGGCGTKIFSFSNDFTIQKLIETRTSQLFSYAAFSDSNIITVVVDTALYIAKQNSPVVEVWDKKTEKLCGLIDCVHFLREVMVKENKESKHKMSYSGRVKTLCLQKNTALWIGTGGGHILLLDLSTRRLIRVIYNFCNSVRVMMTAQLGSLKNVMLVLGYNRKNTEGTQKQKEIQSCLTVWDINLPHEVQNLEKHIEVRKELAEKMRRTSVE

SMILES	pIC50 (LRRK2 kinase)	pIC50 (ULK1 kinase)	pIC50 (ULK kinase [1])	pIC50 (ULK kinase [2])
CC(C)c1cc(N2CCN(C)CC2)ccc1Nc1ncc(C(F)(F)F)c(NCCCN2CCCCC2=O)n1 [Example 33]	6.22 to 6.52	7.60 to 9.00	7.00 to 8.00	6.52 to 7.00
CN1CCN(c2ccc(Nc3ncc(C(F)(F)F)c(NCCCN4CCOCCC4=O)n3)c(Cl)c2)CC1 [Example 132]	7.00 to 9.00	7.60 to 9.00	7.00 to 8.00	6.52 to 7.00
CCc1cc(N2CCN(C)CC2)ccc1Nc1ncc(C#N)c(NCCCN2CCOCCC2=O)n1 [Example 129]	< 6.22	7.00 to 7.60	6.52 to 7.00	6.22 to 6.52
CC(C)c1cc(N2CCN(C)CC2)ccc1Nc1ncc(Br)c(NCCCN2CCOCCC2=O)n1 [Example 87]	6.22 to 6.52	7.00 to 7.60	6.22 to 6.52	6.22 to 6.52
CN(C)C1CN(c2ccc(Nc3ncc(Br)c(NCCCN4CCCCC4=O)n3)c(C3CC3)c2)C1 [Example 118]	7.00 to 9.00	7.00 to 7.60	–	–
CN1CCN(c2ccc(Nc3ncc(Cl)c(NCCCN4CCOCCC4=O)n3)c(C3CC3)c2)CC1 [Example 82]	–	7.00 to 7.60	6.52 to 7.00	6.52 to 7.00
CN1CCN(c2ccc(Nc3ncc(Br)c(NCCCN4CCOCCC4=O)n3)c(C3CC3)c2)CC1 [Example 81]	–	7.60 to 9.00	7.00 to 8.00	6.52 to 7.00
O=C1COCCCN1CCCNc1nc(Nc2ccc(N3CCNCC3)cc2C2CC2)ncc1C(F)(F)F [Example 62]	–	7.60 to 9.00	7.00 to 8.00	6.52 to 7.00
CN1CCN(c2ccc(Nc3ncc(C(F)(F)F)c(NCCCN4CCCCC4=O)n3)c(C3CCCC3)c2)CC1 [Example 113]	6.52 to 7.00	7.60 to 9.00	–	–
CCN1CCN(c2ccc(Nc3ncc(Br)c(NCCCN4CCCCC4=O)n3)c(C(C)C)c2)CC1 [Example 30]	–	7.00 to 7.60	6.52 to 7.00	6.22 to 6.52
CN1CCN(c2ccc(Nc3ncc(Cl)c(NCCCN4CCCCC4=O)n3)c(C3CC3)c2)CC1 [Example 27]	–	7.00 to 7.60	6.52 to 7.00	6.52 to 7.00
CN1CCN(c2ccc(Nc3cc(NCCCN4CCOCCC4=O)c(C(F)(F)F)cn3)c(C3CC3)c2)CC1 [Example 101]	–	7.60 to 9.00	< 6.22	6.22 to 6.52
CCc1cc(N2CCN(C)CC2)ncc1Nc1ncc(C(F)(F)F)c(NCCCN2CCOCCC2=O)n1 [Example 67]	–	7.60 to 9.00	6.52 to 7.00	6.52 to 7.00
CCc1cc(N2CCN(C)CC2)ccc1Nc1ncc(C2CC2)c(NCCCN2CCCOCC2=O)n1 [Example 61]	< 6.22	< 6.30	–	–
CCc1cc(N2CCN(C)CC2)ccc1Nc1ncc(Br)c(NCCCN2CCCOCC2=O)n1 [Example 100]	–	7.00 to 7.60	6.52 to 7.00	6.52 to 7.00

Results, then the compound that gave them:

pIC50 (LRRK2 kinase)	pIC50 (ULK1 kinase)	pIC50 (ULK kinase [1])	pIC50 (ULK kinase [2])	SMILES
6.52 to 7.00	6.30 to 7.00	–	–	Cc1cc(N2C[C@H]3C[C@@H]2CO3)ccc1Nc1ncc(C(F)(F)F)c(NCCCN2CCOCCC2=O)n1 [Example 78]
7.00 to 9.00	7.00 to 7.60	7.00 to 8.00	6.52 to 7.00	CN1C[C@@H]2C[C@H]1CN2c1ccc(Nc2ncc(C(F)(F)F)c(NCCCN3CCCOC3=O)n2)c(C2CC2)c1 [Example 117]
7.00 to 9.00	6.30 to 7.00	–	–	CCc1cc(N2CCN(C)CC2)c(F)cc1Nc1ncc(C(F)(F)F)c(NCCCN2CCCOCC2=O)n1 [Example 64]
7.00 to 9.00	7.00 to 7.60	–	–	CCc1cc(N2CCN(C)C(=O)C2)ccc1Nc1ncc(C(F)(F)F)c(NCCCN2CCCOC2=O)n1 [Example 114]
6.52 to 7.00	7.00 to 7.60	–	–	CCc1cc(N2CCN(C)CC2=O)ccc1Nc1ncc(C(F)(F)F)c(NCCCN2CCCOC2=O)n1 [Example 56]
6.52 to 7.00	7.60 to 9.00	–	7.00 to 8.00	CCc1cc(N2C[C@H]3C[C@@H]2CN3C)ccc1Nc1ncc(C(F)(F)F)c(NCCCN2CCCOC2=O)n1 [Example 123]
7.00 to 9.00	7.60 to 9.00	6.52 to 7.00	6.22 to 6.52	CCc1cc(N2CCN3CCC[C@H]3C2)ccc1Nc1ncc(C(F)(F)F)c(NCCCN2CCOCCC2=O)n1 [Example 122]
6.22 to 6.52	7.60 to 9.00	6.52 to 7.00	6.52 to 7.00	COCc1cc(N2CCN(C)CC2)ccc1Nc1ncc(C(F)(F)F)c(NCCCN2CCCOC2=O)n1 [Example 147]
6.52 to 7.00	7.60 to 9.00	7.00 to 8.00	6.52 to 7.00	CCc1cc(N2CCCN(C)CC2)ccc1Nc1ncc(C(F)(F)F)c(NCCCN2CCOCCC2=O)n1 [Example 79]
6.52 to 7.00	7.60 to 9.00	7.00 to 8.00	6.52 to 7.00	CCc1cc(N2C[C@@H]3C[C@H]2CN3C)ccc1Nc1ncc(C(F)(F)F)c(NCCCN2CCOCCC2=O)n1 [Example 119]
6.52 to 7.00	6.30 to 7.00	–	–	CCc1cc(N2CCN(C)C(=O)C2)ccc1Nc1ncc(C(F)(F)F)c(NCCCN2CCOCCC2=O)n1 [Example 115]
6.52 to 7.00	7.60 to 9.00	–	–	CN1CCN(c2ccc(Nc3ncc(C(F)(F)F)c(NCCCN4CCCOC4=O)n3)c(C3CCCC3)c2)CC1 [Example 111]
6.52 to 7.00	6.30 to 7.00	–	–	CN1CCN(c2ccc(Nc3ncc(C(F)(F)F)c(NCCCN4CCCCC4=O)n3)c(C3CC3)c2)CC1=O [Example 49]
–	7.60 to 9.00	7.00 to 8.00	7.00 to 8.00	CCc1cc(N2CCN(C)CC2)ccc1Nc1ncc(Br)c(NCCCN2CCCOC2=O)n1 [Example 44]
–	7.60 to 9.00	7.00 to 8.00	6.52 to 7.00	CN(C)CC1CN(c2ccc(Nc3ncc(C(F)(F)F)c(NCCCN4CCOCCC4=O)n3)c(C3CC3)c2)C1 [Example 137]
6.52 to 7.00	6.30 to 7.00	–	–	CCc1cc(N2CC[C@H](C#N)C2)ccc1Nc1ncc(C(F)(F)F)c(NCCCN2CCCCC2=O)n1 [Example 48]
6.52 to 7.00	6.30 to 7.00	–	–	CCc1cc(N2CC[C@@H](C#N)C2)ccc1Nc1ncc(C(F)(F)F)c(NCCCN2CCCCC2=O)n1 [Example 93]
